Results reported in ChEMBL document CHEMBL1649287, “Postantibiotic effect of ceftaroline against gram-positive organisms” (2009).
≈ marks a conversion by molar mass, not a printed value.

Experiments:
Assay type in all cases: functional
Staphylococcus aureus [1] = experiment: Antimicrobial activity against methicillin-susceptible, vancomycin-susceptible Staphylococcus aureus sox1 assessed as time required to induce sub-MIC effect at 0.2 times MIC after 1 hr by plate counting method; details: sox1, 1 h
Staphylococcus aureus [2] = experiment: Antimicrobial activity against methicillin-resistant, vancomycin-susceptible Staphylococcus aureus vs1 assessed as time required to induce sub-MIC effect at 0.2 times MIC after 1 hr by plate counting method; details: vs1, 1 h
Staphylococcus aureus [3] = experiment: Antimicrobial activity against methicillin-resistant, vancomycin-resistant Staphylococcus aureus 770 assessed as time required to induce sub-MIC effect at 0.2 times MIC after 1 hr by plate counting method; details: Staphylococcus aureus, 770, 1 h
Streptococcus pneumoniae [4] = experiment: Antimicrobial activity against Penicillin-susceptible Streptococcus pneumoniae ATCC 49617 assessed as time required to induce post antibiotic sub-MIC effect at 0.2 times MIC after 1 hr by plate counting method; details: ATCC 49617, 1 h
Staphylococcus aureus [5] = experiment: Antimicrobial activity against methicillin-susceptible, vancomycin-susceptible Staphylococcus aureus ATCC 29213 assessed as time required to induce post antibiotic sub-MIC effect at 0.2 times MIC after 1 hr by plate counting method; details: ATCC 29213, 1 h
Staphylococcus aureus [6] = experiment: Antimicrobial activity against methicillin-susceptible, vancomycin-susceptible Staphylococcus aureus sox1 assessed as time required to induce post antibiotic sub-MIC effect at 0.2 times MIC after 1 hr by plate counting method; details: sox1, 1 h
Staphylococcus aureus [7] = experiment: Antimicrobial activity against methicillin-resistant, vancomycin-hetroresistant Staphylococcus aureus 618 assessed as time required to induce post antibiotic sub-MIC effect at 0.2 times MIC after 1 hr by plate counting method; details: Staphylococcus aureus, 618, 1 h
Staphylococcus aureus [8] = experiment: Antimicrobial activity against methicillin-resistant, vancomycin-resistant Staphylococcus aureus 770 assessed as time required to induce post antibiotic sub-MIC effect at 0.2 times MIC after 1 hr by plate counting method; details: Staphylococcus aureus, 770, 1 h
Enterococcus faecalis [9] = experiment: Antimicrobial activity against vancomycin-sensitive Enterococcus faecalis ATCC 29212 assessed as time required to induce post antibiotic sub-MIC effect at 0.2 times MIC after 1 hr by plate counting method; details: ATCC 29212, 1 h
Enterococcus faecalis [10] = experiment: Antimicrobial activity against vancomycin-resistant Enterococcus faecalis 266 assessed as time required to induce post antibiotic sub-MIC effect at 0.2 times MIC after 1 hr by plate counting method; details: Enterococcus faecalis, 266, 1 h
Staphylococcus aureus [11] = experiment: Antimicrobial activity against methicillin-susceptible, vancomycin-susceptible Staphylococcus aureus ATCC 29213 assessed as time required to induce sub-MIC effect at 0.3 times MIC after 1 hr by plate counting method; details: ATCC 29213, 1 h
Staphylococcus aureus [12] = experiment: Antimicrobial activity against methicillin-resistant, vancomycin-susceptible Staphylococcus aureus vs1 assessed as time required to induce sub-MIC effect at 0.3 times MIC after 1 hr by plate counting method; details: vs1, 1 h
Enterococcus faecalis [13] = experiment: Antimicrobial activity against vancomycin-sensitive Enterococcus faecalis 10 assessed as time required to induce sub-MIC effect at 0.3 times MIC after 1 hr by plate counting method; details: Enterococcus faecalis, 10, 1 h
Streptococcus pneumoniae [14] = experiment: Antimicrobial activity against Penicillin-susceptible Streptococcus pneumoniae s502 assessed as time required to induce post antibiotic sub-MIC effect at 0.3 times MIC after 1 hr by plate counting method; details: s502, 1 h
Enterococcus faecalis [15] = experiment: Antimicrobial activity against vancomycin-sensitive Enterococcus faecalis 20 assessed as time required to induce post antibiotic sub-MIC effect at 0.3 times MIC after 1 hr by plate counting method; details: Enterococcus faecalis, 20, 1 h
Staphylococcus aureus [16] = experiment: Antimicrobial activity against methicillin-resistant, vancomycin-intermediate Staphylococcus aureus 510 assessed as time required to induce sub-MIC effect at 0.4 times MIC after 1 hr by plate counting method; details: Staphylococcus aureus, 510, 1 h
Enterococcus faecalis [17] = experiment: Antimicrobial activity against vancomycin-resistant Enterococcus faecalis 266 assessed as time required to induce sub-MIC effect at 0.4 times MIC after 1 hr by plate counting method; details: Enterococcus faecalis, 266, 1 h
Staphylococcus aureus [18] = experiment: Antimicrobial activity against methicillin-susceptible, vancomycin-susceptible Staphylococcus aureus ATCC 29213 assessed as time required to induce post antibiotic sub-MIC effect at 0.4 times MIC after 1 hr by plate counting method; details: ATCC 29213, 1 h
Staphylococcus aureus [19] = experiment: Antimicrobial activity against methicillin-susceptible, vancomycin-susceptible Staphylococcus aureus sox1 assessed as time required to induce post antibiotic sub-MIC effect at 0.4 times MIC after 1 hr by plate counting method; details: sox1, 1 h
Enterococcus faecalis [20] = experiment: Antimicrobial activity against vancomycin-sensitive Enterococcus faecalis 10 assessed as time required to induce post antibiotic sub-MIC effect at 0.4 times MIC after 1 hr by plate counting method; details: Enterococcus faecalis, 10, 1 h
Enterococcus faecalis [21] = experiment: Antimicrobial activity against vancomycin-resistant Enterococcus faecalis 266 assessed as time required to induce post antibiotic sub-MIC effect at 0.4 times MIC after 1 hr by plate counting method; details: Enterococcus faecalis, 266, 1 h
Enterococcus faecalis [22] = experiment: Antimicrobial activity against vancomycin-resistant Enterococcus faecalis 609 assessed as time required to induce post antibiotic sub-MIC effect at 0.4 times MIC after 1 hr by plate counting method; details: Enterococcus faecalis, 609, 1 h
Staphylococcus aureus [23] = experiment: Antimicrobial activity against Staphylococcus aureus ATCC 29213 infected in neutropenic ICR mouse assessed as post antibiotic effect at 1.56 to 100 mg/kg, sc administered 14 hrs post infection; details: dose mg/kg 1.56-100; route subcutaneous
Streptococcus pneumoniae [24] = experiment: Antimicrobial activity against Penicillin-susceptible Streptococcus pneumoniae ATCC 49617 by microdilution method
Streptococcus pneumoniae [25] = experiment: Antimicrobial activity against Penicillin-, erythromycin-resistant Streptococcus pneumoniae 37 by microdilution method
Staphylococcus aureus [26] = experiment: Antimicrobial activity against methicillin-susceptible, vancomycin-susceptible Staphylococcus aureus ATCC 29213 by microdilution method
Staphylococcus aureus [27] = experiment: Antimicrobial activity against methicillin-resistant, vancomycin-resistant Staphylococcus aureus 770 by microdilution method
Streptococcus pneumoniae [28] = experiment: Antimicrobial activity against Penicillin-susceptible Streptococcus pneumoniae s502 assessed as post antibiotic effect at 10 times MIC after 1 hr by plate counting method; details: s502, 1 h
Streptococcus pneumoniae [29] = experiment: Antimicrobial activity against Penicillin-intermediate Streptococcus pneumoniae s1234 assessed as post antibiotic effect at 10 times MIC after 1 hr by plate counting method; details: s1234, 1 h
Streptococcus pneumoniae [30] = experiment: Antimicrobial activity against Penicillin-, erythromycin-resistant Streptococcus pneumoniae 37 assessed as post antibiotic effect at 10 times MIC after 1 hr by plate counting method; details: Streptococcus pneumoniae, 37, 1 h
Staphylococcus aureus [31] = experiment: Antimicrobial activity against methicillin-resistant, vancomycin-hetroresistant Staphylococcus aureus 618 assessed as post antibiotic effect at 10 times MIC after 1 hr by plate counting method; details: Staphylococcus aureus, 618, 1 h
Staphylococcus aureus [32] = experiment: Antimicrobial activity against methicillin-resistant, vancomycin-intermediate Staphylococcus aureus 510 assessed as post antibiotic effect at 10 times MIC after 1 hr by plate counting method; details: Staphylococcus aureus, 510, 1 h
Enterococcus faecalis [33] = experiment: Antimicrobial activity against vancomycin-sensitive Enterococcus faecalis 10 assessed as post antibiotic effect at 10 times MIC after 1 hr by plate counting method; details: Enterococcus faecalis, 10, 1 h
Enterococcus faecalis [34] = experiment: Antimicrobial activity against vancomycin-resistant Enterococcus faecalis 266 assessed as post antibiotic effect at 10 times MIC after 1 hr by plate counting method; details: Enterococcus faecalis, 266, 1 h
Enterococcus faecalis [35] = experiment: Antimicrobial activity against vancomycin-resistant Enterococcus faecalis 609 assessed as post antibiotic effect at 10 times MIC after 1 hr by plate counting method; details: Enterococcus faecalis, 609, 1 h

Structure (SMILES): CCO/N=C(\C(=O)N[C@@H]1C(=O)N2C(C(=O)[O-])=C(Sc3nc(-c4cc[n+](C)cc4)cs3)CS[C@H]12)c1nsc(NP(=O)(O)O)n1 [CEFTAROLINE FOSAMIL]
- PAE (Staphylococcus aureus [1]): 0.2 h
- time (Staphylococcus aureus [2]): 0.4 h
- time (Staphylococcus aureus [3]): 0.3 h
- PAE (Streptococcus pneumoniae [4]): 4.1 h
- PAE (Staphylococcus aureus [5]): 2.5 h
- time (Staphylococcus aureus [6]): 2.2 h
- time (Staphylococcus aureus [7]): 2.2 h
- time (Staphylococcus aureus [8]): 1.5 h
- PAE (Enterococcus faecalis [9]): 7.6 h
- time (Enterococcus faecalis [10]): 8.3 h
- PAE (Staphylococcus aureus [11]): 0.8 h
- time (Staphylococcus aureus [12]): 0.7 h
- PAE (Enterococcus faecalis [13]): 1.5 h
- PAE (Streptococcus pneumoniae [14]): 3.5 h
- PAE (Enterococcus faecalis [15]): 8.6 h
- time (Staphylococcus aureus [16]): 1.3 h
- time (Enterococcus faecalis [17]): 9.5 h
- PAE (Staphylococcus aureus [18]): > 10.5 h
- PAE (Staphylococcus aureus [19]): 6.2 h
- PAE (Enterococcus faecalis [20]): 8.5 h
- time (Enterococcus faecalis [21]): > 10.3 h
- time (Enterococcus faecalis [22]): 7.9 h
- PAE (Staphylococcus aureus [23]): 0.8 h
- MIC (Streptococcus pneumoniae [24]): 0.016 µg/mL (≈ 0.0234 µM)
- MIC (Streptococcus pneumoniae [25]): 0.25 µg/mL (≈ 0.365 µM)
- MIC (Staphylococcus aureus [26]): 0.25 µg/mL (≈ 0.365 µM)
- MIC (Staphylococcus aureus [27]): 1 µg/mL (≈ 1.46 µM)
- PAE (Streptococcus pneumoniae [28]): 1.8 h
- PAE (Streptococcus pneumoniae [29]): 0.7 h
- PAE (Streptococcus pneumoniae [30]): 1.5 h
- PAE (Staphylococcus aureus [31]): 0.7 h
- PAE (Staphylococcus aureus [32]): 1.4 h
- PAE (Enterococcus faecalis [33]): 0.5 h
- PAE (Enterococcus faecalis [34]): 0.9 h
- PAE (Enterococcus faecalis [35]): 0.2 h
